Measured values published in ChEMBL document CHEMBL1909046, “DrugMatrix in vitro pharmacology data”.

Tests used:
Cytochrome P450 2D6 = Cytochrome P450 2D6 (Homo sapiens, UniProt P10635); details: bti-tn-5b1-4; also: in other assays of this panel Not Active means under 50% inhibition at 10 µM
[1] = DRUGMATRIX: Phorbol Ester radioligand binding (ligand: [3H] PDBu); assay type: cell membranes, Mus musculus, ICR, Brain, Membrane; details: Not Active = under 50% inhibition at 10 µM
[2] = DRUGMATRIX: Sigma2 radioligand binding (ligand: [3H] Ifenprodil); assay type: cell membranes, Rattus norvegicus, Wistar, Brain, Membrane; details: Not Active = under 50% inhibition at 10 µM
[3] = DRUGMATRIX: Leukotriene, BLT (LTB4) radioligand binding (ligand: [3H]LTB4); assay type: cell membranes, Membrane; details: u-937; Not Active = under 50% inhibition at 10 µM
[4] = DRUGMATRIX: Purinergic P2X radioligand binding (ligand: [3H] alpha, beta-Methylene-ATP); assay type: cell membranes, Oryctolagus cuniculus, New Zealand albino, Urinary bladder, Membrane; details: Not Active = under 50% inhibition at 10 µM
[5] = DRUGMATRIX: Calcium Channel Type L, Benzothiazepine radioligand binding (ligand: [3H] Diltiazem); assay type: cell membranes, Rattus norvegicus, Wistar, Brain, Membrane; details: Not Active = under 50% inhibition at 10 µM
[6] = DRUGMATRIX: GABAA, Chloride Channel, TBOB radioligand binding (ligand: [3H] TBOB); assay type: cell membranes, Rattus norvegicus, Wistar, Cerebral cortex, Membrane; details: Not Active = under 50% inhibition at 10 µM

Cytochrome P450 2D6, sequence (P10635 whole entry): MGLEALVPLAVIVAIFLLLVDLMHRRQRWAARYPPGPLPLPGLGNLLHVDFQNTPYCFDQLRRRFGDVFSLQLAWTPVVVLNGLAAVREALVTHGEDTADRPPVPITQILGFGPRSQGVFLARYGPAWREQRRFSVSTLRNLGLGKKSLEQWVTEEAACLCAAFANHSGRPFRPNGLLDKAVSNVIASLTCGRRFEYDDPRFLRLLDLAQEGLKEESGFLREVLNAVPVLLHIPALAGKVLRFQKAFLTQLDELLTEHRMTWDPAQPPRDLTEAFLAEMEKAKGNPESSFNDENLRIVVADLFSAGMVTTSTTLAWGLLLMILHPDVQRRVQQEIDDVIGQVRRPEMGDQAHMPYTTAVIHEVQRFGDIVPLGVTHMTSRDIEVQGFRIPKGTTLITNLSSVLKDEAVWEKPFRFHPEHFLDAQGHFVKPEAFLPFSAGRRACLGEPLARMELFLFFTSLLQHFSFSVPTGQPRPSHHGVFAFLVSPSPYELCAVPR

CN1[C@@H]2CC[C@H]1C[C@@H](OC(c1ccccc1)c1ccccc1)C2 [BENZTROPINE]
Not Active: IC50 (Cytochrome P450 2D6) | Ki (Cytochrome P450 2D6)

Cc1ccc(C(=O)c2ccc(CC(=O)O)n2C)cc1 [TOLMETIN]
Not Active: IC50 [1] | Ki [1] | IC50 [2] | Ki [2] | IC50 [3] | Ki [3] | IC50 [4] | Ki [4] | IC50 (Cytochrome P450 2D6) | Ki (Cytochrome P450 2D6) | IC50 [5] | Ki [5] | IC50 [6] | Ki [6]

CN1CCN(C2=Nc3cc(Cl)ccc3Nc3ccccc32)CC1 [CLOZAPINE]
Not Active: IC50 (Cytochrome P450 2D6) | Ki (Cytochrome P450 2D6)

C[C@]12C=CC(=O)C=C1CC[C@@H]1[C@@H]2C(=O)C[C@@]2(C)[C@H]1CC[C@]2(O)C(=O)CO [PREDNISONE]
Not Active: IC50 [1] | Ki [1] | IC50 [2] | Ki [2] | IC50 [3] | Ki [3] | IC50 [4] | Ki [4] | IC50 [5] | Ki [5] | IC50 [6] | Ki [6]

CC(C)NC[C@@H](O)COc1cccc2ccccc12 [DEXPROPRANOLOL]
Not Active: IC50 (Cytochrome P450 2D6) | Ki (Cytochrome P450 2D6)

CN1CCN(CCCN2c3ccccc3Sc3ccc(C(F)(F)F)cc32)CC1 [TRIFLUOPERAZINE]
Not Active: IC50 [1] | Ki [1] | IC50 [2] | Ki [2] | IC50 [3] | Ki [3] | IC50 [4] | Ki [4] | IC50 [5] | Ki [5] | IC50 [6] | Ki [6]

O=C(O)COc1ccc(C(=O)c2cccs2)c(Cl)c1Cl
Not Active: IC50 [1] | Ki [1] | IC50 [2] | Ki [2] | IC50 [3] | Ki [3] | IC50 [4] | Ki [4] | IC50 (Cytochrome P450 2D6) | Ki (Cytochrome P450 2D6) | IC50 [5] | Ki [5] | IC50 [6] | Ki [6]

C[N+](C)(C)CCOC(=O)CCC(=O)OCC[N+](C)(C)C.[Cl-].[Cl-] [SUCCINYLCHOLINE CHLORIDE]
Not Active: IC50 [1] | Ki [1] | IC50 [2] | Ki [2] | IC50 [3] | Ki [3] | IC50 [4] | Ki [4] | IC50 (Cytochrome P450 2D6) | Ki (Cytochrome P450 2D6) | IC50 [5] | Ki [5] | IC50 [6] | Ki [6]

TRANSPLATIN
Not Active: IC50 [1] | Ki [1] | IC50 [2] | Ki [2] | IC50 [3] | Ki [3] | IC50 [4] | Ki [4] | IC50 (Cytochrome P450 2D6) | Ki (Cytochrome P450 2D6) | IC50 [5] | Ki [5] | IC50 [6] | Ki [6]

C[C@@](Cc1ccc(O)c(O)c1)(NN)C(=O)O.O [CARBIDOPA]
Not Active: IC50 [1] | Ki [1] | IC50 [2] | Ki [2] | IC50 [3] | Ki [3] | IC50 [4] | Ki [4] | IC50 (Cytochrome P450 2D6) | Ki (Cytochrome P450 2D6) | IC50 [5] | Ki [5] | IC50 [6] | Ki [6]

ZIRCONIUM(IV) CHLORIDE
Not Active: IC50 [1] | Ki [1] | IC50 [2] | Ki [2] | IC50 [3] | Ki [3] | IC50 [4] | Ki [4] | IC50 (Cytochrome P450 2D6) | Ki (Cytochrome P450 2D6) | IC50 [5] | Ki [5] | IC50 [6] | Ki [6]

O=C(O)c1ccccc1O [SALICYLIC ACID]
Not Active: IC50 [1] | Ki [1] | IC50 [2] | Ki [2] | IC50 [3] | Ki [3] | IC50 [4] | Ki [4] | IC50 (Cytochrome P450 2D6) | Ki (Cytochrome P450 2D6) | IC50 [5] | Ki [5] | IC50 [6] | Ki [6]
